From patent US9914736B2, “TrKA kinase inhibitors, compositions and methods thereof” (Merck Sharp & Dohme Corp., priority 2014, dated 2018) come the findings set out here.

For this assay, the target named is human TrkA receptor (Homo sapiens (Human), UniProt P04629). Nature of the assay: DiscoverX PathHunter TrkA functional assay. Type of assay: cell-based. The note with it: U2OS cells expressing human TrkA-ProLink, Shc1-EA and p75NTR; compound 1 h, then NGF at ~80% of maximal response for 3 h; luminescence.

A word on the IC50: it is the point on the concentration scale where inhibition reaches its midpoint. Read a low IC50 as greater potency in that assay.

human TrkA receptor, sequence (P04629 33-796): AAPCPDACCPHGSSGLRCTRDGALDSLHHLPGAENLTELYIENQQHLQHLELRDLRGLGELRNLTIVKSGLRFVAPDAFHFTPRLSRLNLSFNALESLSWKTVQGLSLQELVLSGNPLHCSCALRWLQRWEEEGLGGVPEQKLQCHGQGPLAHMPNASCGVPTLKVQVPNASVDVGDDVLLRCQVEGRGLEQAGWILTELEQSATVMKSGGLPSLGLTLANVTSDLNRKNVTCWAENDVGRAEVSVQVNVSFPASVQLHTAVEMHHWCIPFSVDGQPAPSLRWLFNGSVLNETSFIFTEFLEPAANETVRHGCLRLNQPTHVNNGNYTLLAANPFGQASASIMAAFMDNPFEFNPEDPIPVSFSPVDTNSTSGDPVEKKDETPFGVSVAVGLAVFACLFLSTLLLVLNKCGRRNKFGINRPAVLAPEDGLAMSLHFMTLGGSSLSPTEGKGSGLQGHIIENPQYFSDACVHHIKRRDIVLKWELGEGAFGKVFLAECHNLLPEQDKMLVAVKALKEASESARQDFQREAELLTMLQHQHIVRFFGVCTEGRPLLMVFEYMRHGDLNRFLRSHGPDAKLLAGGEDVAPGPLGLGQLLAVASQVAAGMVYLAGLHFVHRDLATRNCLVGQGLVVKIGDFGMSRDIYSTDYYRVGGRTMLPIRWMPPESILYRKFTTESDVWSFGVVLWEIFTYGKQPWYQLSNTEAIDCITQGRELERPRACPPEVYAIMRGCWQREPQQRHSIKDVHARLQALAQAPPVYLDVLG

`Cc1cc(-n2nc(CNCCO)cc2NC(=O)c2ccc(C(F)(F)F)c(-c3ccn(C)n3)c2)[nH]n1` [Compound 68, N-(3-{[(2-hydroxyethyl)amino]methyl}-5′-methyl-2′H-1,3′-bipyrazol-5-yl)-3-(1-methyl-1H-pyrazol-3-yl)-4-(trifluoromethyl)benzamide]: the IC50 was found to be 0.24 µM. The same measure for `Cc1cc(-n2nc(CN3CCCC3)cc2NC(=O)c2ccc(C(F)(F)F)c(-c3ccn(C)n3)c2)[nH]n1` [Compound 69, 3-(1-methyl-1H-pyrazol-3-yl)-N-[5′-methyl-3-(pyrrolidin-1-ylmethyl)-2′H-1,3′-bipyrazol-5-yl]-4-(trifluoromethyl)benzamide]: 0.24 µM; for `O=C(Nc1cc(-c2ccc(=O)[nH]n2)nn1-c1ccccc1)c1ccc(C(F)(F)F)c(-c2ccn(CC(F)(F)F)n2)c1` [Compound 70, N-[3-(6-oxo-1,6-dihydropyridazin-3-yl)-1-phenyl-1H-pyrazol-5-yl]-3-[1-(2,2,2-trifluoroethyl)-1H-pyrazol-3-yl]-4-(trifluoromethyl)benzamide]: 0.39 µM.

In the case of `Cn1ccc(-c2cc(C(=O)Nc3cc(-c4ccc(=O)[nH]n4)nn3-c3ccccc3)ccc2OC(F)(F)F)n1` [Compound 71, 3-(1-methyl-1H-pyrazol-3-yl)-N-[3-(6-oxo-1,6-dihydropyridazin-3-yl)-1-phenyl-1H-pyrazol-5-yl]-4-(trifluoromethoxy)benzamide], the IC50 was determined as 0.089 µM. As to `Cc1nc(NC(=O)c2ccc(C(F)(F)F)c(-c3ccn(C)n3)c2)c(-c2ccccc2)s1` [Compound 72, N-(2-methyl-5-phenyl-1,3-thiazol-4-yl)-3-(1-methyl-1H-pyrazol-3-yl)-4-(trifluoromethyl)benzamide], half-maximal inhibition (IC50) required 0.062 µM.

`Cc1cc(NC(=O)c2ccc(OC(F)(F)F)c(-c3ccn(C)n3)c2)n(-c2ccc(F)cc2)n1` [Compound 73, N-[1-(4-fluorophenyl)-3-methyl-1H-pyrazol-5-yl]-3-(1-methyl-1H-pyrazol-3-yl)-4-(trifluoromethoxy)benzamide] showed a concentration for half-maximal inhibition (IC50) of 0.057 µM. In turn, `Cc1cc(-c2nn(C)cc2NC(=O)c2ccc(C(F)(F)F)c(-c3ccn(C)n3)c2)[nH]n1` [Compound 74, N-(1,5′-dimethyl-1H,2′H-3,3′-bipyrazol-4-yl)-3-(1-methyl-1H-pyrazol-3-yl)-4-(trifluoromethyl)benzamide] yielded a 50% inhibitory concentration (IC50) of 0.18 µM. As for `CCn1ccc(-c2cc(C(=O)Nc3cc(C)nn3-c3ccc(F)cc3)ccc2C(F)(F)F)n1` [Compound 75, 3-(1-ethyl-1H-pyrazol-3-yl)-N-[1-(4-fluorophenyl)-3-methyl-1H-pyrazol-5-yl]-4-(trifluoromethyl)benzamide], the IC50 was 0.089 µM. As to `Cc1cc(-n2nc(C(=O)NCc3cccnc3)cc2NC(=O)c2cc(-c3ccn(C)n3)c(C(F)(F)F)cc2F)[nH]n1` [Compound 76, 5-({[2-fluoro-5-(1-methyl-1H-pyrazol-3-yl)-4-(trifluoromethyl)phenyl]carbonyl}amino)-5′-methyl-N-(pyridin-3-ylmethyl)-2′H-1,3′-bipyrazole-3-carboxamide], the half-inhibitory concentration (IC50) was 0.00039 µM. This IC50 is about 230-fold lower than that of the compound before.

`Cn1ccc(-c2cc(C(=O)Nc3cc(Cc4nnn(CCO)n4)nn3-c3ccc(F)cc3)ccc2C(F)(F)F)n1` [Compound 77, N-[1-(4-fluorophenyl)-3-{[2-(2-hydroxyethyl)-2H-tetrazol-5-yl]methyl}-1H-pyrazol-5-yl]-3-(1-methyl-1H-pyrazol-3-yl)-4-(trifluoromethyl)benzamide] returned a 50% inhibitory concentration (IC50) of 0.014 µM. `CNC(=O)Cn1nnc(Cc2cc(NC(=O)c3ccc(C(F)(F)F)c(-c4ccn(C)n4)c3)n(-c3ccc(F)cc3)n2)n1` [Compound 78, N-[1-(4-fluorophenyl)-3-({2-[2-(methylamino)-2-oxoethyl]-2H-tetrazol-5-yl}methyl)-1H-pyrazol-5-yl]-3-(1-methyl-1H-pyrazol-3-yl)-4-(trifluoromethyl)benzamide] registered a 50% inhibitory concentration (IC50) of 0.0016 µM. `Cn1ccc(-c2cc(C(=O)Nc3c(-c4ccccc4)nc4n3CCC4)ccc2C(F)(F)F)n1` [Compound 79, 3-(1-methyl-1H-pyrazol-3-yl)-N-(2-phenyl-6,7-dihydro-5H-pyrrolo[1,2-a]imidazol-3-yl)-4-(trifluoromethyl)benzamide] returned an IC50 of 0.044 µM. This IC50 is about 27-fold higher than that of the compound before. Next, `Cn1ccc(-c2cc(C(=O)Nc3cc(Cc4nnnn4C)nn3-c3ccccc3)c(Cl)cc2C(F)(F)F)n1` [Compound 80, 2-chloro-5-(1-methyl-1H-pyrazol-3-yl)-N-(3-((1-methyl-1H-tetrazol-5-yl)methyl)-1-phenyl-1H-pyrazol-5-yl)-4-(trifluoromethyl)benzamide]: 0.00078 µM; `NC(=O)c1ccc(-c2cc(NC(=O)c3cc(-c4ncccn4)c(C(F)(F)F)cc3F)n(-c3ccc(F)cc3)n2)cc1` [Compound 81, N-[3-(4-carbamoylphenyl)-1-(4-fluorophenyl)-1H-pyrazol-5-yl]-2-fluoro-5-pyrimidin-2-yl-4-(trifluoromethyl)benzamide]: 0.00076 µM.

In turn, `Cn1ccc(-c2cc(C(=O)Nc3c4c(nn3-c3ccc(F)cc3)CCC4)ccc2C(F)(F)F)n1` [Compound 82, N-[2-(4-fluorophenyl)-2,4,5,6-tetrahydrocyclopenta[c]pyrazol-3-yl]-3-(1-methyl-1H-pyrazol-3-yl)-4-(trifluoromethyl)benzamide] showed an IC50 of 0.033 µM. In turn, `Cc1cc(-n2nc(C(=O)NCc3cncnc3)cc2NC(=O)c2ccc(C(F)(F)F)c(-c3ccn(C)n3)c2)[nH]n1` [Compound 83, 5′-methyl-5-(3-(1-methyl-1H-pyrazol-3-yl)-4-(trifluoromethyl)benzamido)-N-(pyrimidin-5-ylmethyl)-2′H-[1,3′-bipyrazole]-3-carboxamide] displayed a half-maximal inhibitory concentration (IC50) of 0.0016 µM. The compound `NC(=O)c1ccnc(-c2cc(NC(=O)c3cc(-c4ncccn4)c(C(F)(F)F)cc3F)n(-c3ccc(F)cc3)n2)n1` [Compound 84, 2-(5-(2-fluoro-5-(pyrimidin-2-yl)-4-(trifluoromethyl)benzamido)-1-(4-fluorophenyl)-1H-pyrazol-3-yl)pyrimidine-4-carboxamide] showed a half-inhibitory concentration (IC50) of 0.0049 µM. As for `Cn1ccc(-c2cc(C(=O)Nc3cc(Cc4nnn(C)n4)nn3-c3ccc(F)cc3)c(F)cc2C(F)(F)F)n1` [Compound 85, 2-fluoro-N-(1-(4-fluorophenyl)-3-((2-methyl-2H-tetrazol-5-yl)methyl)-1H-pyrazol-5-yl)-5-(1-methyl-1H-pyrazol-3-yl)-4-(trifluoromethyl)benzamide], half-maximal inhibition (IC50) required 0.0012 µM.

Regarding `CNC(=O)c1cc(NC(=O)c2cc(-c3ncccn3)c(C(F)(F)F)cc2F)n(-c2ccc(F)cc2)n1` [Compound 86, 5-(2-fluoro-5-(pyrimidin-2-yl)-4-(trifluoromethyl)benzamido)-1-(4-fluorophenyl)-N-methyl-1H-pyrazole-3-carboxamide], half-maximal inhibition (IC50) required 0.007 µM. Regarding `O=C(Nc1cc(Cn2cccn2)nn1-c1ccc(F)cc1)c1cc(-c2ncccn2)c(C(F)(F)F)cc1F` [Compound 87, N-(3-((1H-pyrazol-1-yl)methyl)-1-(4-fluorophenyl)-1H-pyrazol-5-yl)-2-fluoro-5-(pyrimidin-2-yl)-4-(trifluoromethyl)benzamide], the 50% inhibitory concentration (IC50) came to 0.0066 µM.

For the compound `O=C(Nc1cc(C(=O)N2CCC2)nn1-c1ccc(F)cc1)c1cc(-c2ncccn2)c(C(F)(F)F)cc1F` [Compound 88, N-(3-(azetidine-1-carbonyl)-1-(4-fluorophenyl)-1H-pyrazol-5-yl)-2-fluoro-5-(pyrimidin-2-yl)-4-(trifluoromethyl)benzamide], the IC50 stood at 0.014 µM.
